Measurements as given in ChEMBL document CHEMBL2424642, “Heterocyclic glucocorticoid receptor modulators with a 2,2-dimethyl-3-phenyl-N-(thiazol or thiadiazol-2-yl)propanamide core” (Bioorg Med Chem Lett, 2013).

How the values were obtained:
Glucocorticoid receptor [1] = biological target: T1, Glucocorticoid receptor (Homo sapiens, UniProt P04150); assay: Binding affinity to glucocorticoid receptor-LBD (unknown origin) by fluorescence polarization assay
T1 sequence (P04150 whole entry): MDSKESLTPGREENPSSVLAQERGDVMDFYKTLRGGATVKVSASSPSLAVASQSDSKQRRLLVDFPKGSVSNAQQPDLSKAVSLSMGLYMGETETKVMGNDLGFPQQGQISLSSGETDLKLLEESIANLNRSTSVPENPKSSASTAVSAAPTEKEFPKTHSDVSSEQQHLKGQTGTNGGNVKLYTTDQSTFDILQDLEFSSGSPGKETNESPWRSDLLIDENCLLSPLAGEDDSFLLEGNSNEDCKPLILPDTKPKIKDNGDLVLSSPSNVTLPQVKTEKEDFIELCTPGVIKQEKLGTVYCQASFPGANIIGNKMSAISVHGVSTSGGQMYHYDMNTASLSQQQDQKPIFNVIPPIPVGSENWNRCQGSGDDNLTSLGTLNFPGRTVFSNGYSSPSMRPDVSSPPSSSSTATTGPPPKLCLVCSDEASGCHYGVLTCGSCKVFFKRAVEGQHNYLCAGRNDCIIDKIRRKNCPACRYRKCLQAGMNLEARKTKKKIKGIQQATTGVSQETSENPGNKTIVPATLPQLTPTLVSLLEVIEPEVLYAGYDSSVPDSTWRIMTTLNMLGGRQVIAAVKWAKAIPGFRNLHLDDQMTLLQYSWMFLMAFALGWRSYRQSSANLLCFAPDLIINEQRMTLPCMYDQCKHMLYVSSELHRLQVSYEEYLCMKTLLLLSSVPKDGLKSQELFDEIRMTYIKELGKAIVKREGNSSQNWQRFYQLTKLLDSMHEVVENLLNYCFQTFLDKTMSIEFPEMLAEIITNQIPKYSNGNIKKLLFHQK

Glucocorticoid receptor [2] = biological target: T1, Glucocorticoid receptor; assay: Transactivation of GR-LBD expressed in human HeLa cells co-expressing GAL4-DBD by luciferase reporter gene assay; format: cell-based
Glucocorticoid receptor [3] = biological target: T1, Glucocorticoid receptor; assay: Transrepression of glucocorticoid receptor in human A549 cells assessed as inhibition of PMA-induced AP-1 activity by luciferase reporter gene assay; format: cell-based
Glucocorticoid receptor [4] = biological target: T1, Glucocorticoid receptor; assay: (§1) Transactivation of GR-LBD expressed in human HeLa cells co-expressing GAL4-DBD by luciferase reporter gene assayrelative to dexamethasone; format: cell-based; details: hela
[5] = biological target: T2, Glucocorticoid receptor (Homo sapiens) (UniProt P04150); assay: Transrepression of glucocorticoid receptor in human A549 cells assessed as inhibition of PMA-induced AP-1 activity by luciferase reporter gene assay relative to dexamethasone; format: cell-based
T2 sequence (whole entry): T1 sequence (P04150 whole entry)

[6] = biological target: T3, Glucocorticoid receptor (GR-LBD) (Homo sapiens, UniProt P04150); assay: as §1; format: cell-based; details: HeLa cells expressing GR-LBD and GAL4-DBD, read-out: Efficacy
T3 sequence (P04150 whole entry): T1 sequence (P04150 whole entry)

SMILES | Ki (Glucocorticoid receptor [1]) [nM] | EC50 (Glucocorticoid receptor [2]) [nM] | EC50 (Glucocorticoid receptor [3]) [nM] | Efficacy (Glucocorticoid receptor [4]) [%] | Efficacy [5] [%] | Emax [6] [%]
CC(C)(C(=O)Nc1nncs1)C(c1ccccc1)c1ccn2c(-c3ccccc3)ncc2c1 (single isomer, unassigned; enantiomer 1) [listing 1 of 2 here] | 5 | > 10000 | 1120 | – | – | –
CC(C)(C(=O)Nc1nncs1)C(c1ccccc1)c1ccn2c(-c3ccccc3)ncc2c1 (centres undefined) [listing 1 of 2 here] | 3 | 2000 | 899 | 30 | – | –
CC(C)(C(=O)Nc1nccs1)C(c1ccccc1)c1ccn2c(-c3ccccc3)ncc2c1 (centres undefined) [listing 1 of 2 here] | 5 | 360 | 60 | – | – | 32
CC(C)(C(=O)Nc1nccs1)C(c1ccccc1)c1cc(-c2ccc(F)cc2)c2ncccc2c1 (centres undefined) | 285 | – | > 10000 | – | – | –
CC(C)(C(=O)Nc1nncs1)C(c1ccccc1)c1ccn2c(-c3ccccc3)ncc2c1 (centres undefined) [listing 2 of 2 here] | – | – | – | – | 66 | –
CC(C)(C(=O)Nc1nncs1)C(c1ccccc1)c1cc(-c2ccc(F)cc2)c2ncccc2c1 (centres undefined) | 196 | – | > 10000 | – | – | –
CC(C)(C(=O)Nc1nccs1)C(c1ccccc1)c1ccc2cncn2c1 (centres undefined) | – | – | > 10000 | – | – | –
CC(C)(C(=O)Nc1nncs1)C(c1ccccc1)c1ccn2c(-c3ccccc3)ncc2c1 (single isomer, unassigned; enantiomer 2) [listing 1 of 2 here] | – | – | – | – | 61 | –
CC(C)(C(=O)Nc1nccs1)C(c1ccccc1)c1ccc2[nH]ccc2c1 (centres undefined) | 7 | – | 230 | – | 61 | –
CC(C)(C(=O)Nc1nncs1)C(c1ccccc1)c1ccn2c(-c3ccccc3)ncc2c1 (single isomer, unassigned; enantiomer 2) [listing 2 of 2 here] | 1 | 613 | 254 | – | – | 43
CC(C)(C(=O)Nc1nncs1)C(c1ccccc1)c1ccn2c(-c3ccccc3)ncc2c1 (single isomer, unassigned; enantiomer 1) [listing 2 of 2 here] | – | – | – | – | 34 | –
CC(C)(C(=O)Nc1nccs1)C(c1ccccc1)c1ccn2cncc2c1 (centres undefined) | 18 | – | 1200 | – | 39 | –
CC(C)(C(=O)Nc1nccs1)C(c1ccccc1)c1ccc2ncccc2c1 (centres undefined) | 85 | – | > 10000 | – | – | –
CC(C)(C(=O)Nc1nccs1)C(c1ccccc1)c1ccc2c(-c3cccc(C#N)c3)ncn2c1 (centres undefined) | 4 | > 10000 | 225 | – | 30 | –
CC(C)(C(=O)Nc1nccs1)C(c1ccccc1)c1ccc2nncn2c1 (centres undefined) | – | – | > 10000 | – | – | –
CC(C)(C(=O)Nc1nncs1)C(c1ccccc1)c1ccc2c(-c3cccc(CO)c3)ncn2c1 (centres undefined) | 5 | > 10000 | > 5000 | – | – | –
CC(C)(C(=O)Nc1nncs1)C(c1ccccc1)c1ccc2c(-c3ccc(F)cc3F)ncn2c1 (centres undefined) | 1 | 117 | 15 | – | 69 | 61
CC(C)(C(=O)Nc1nncs1)C(c1ccccc1)c1ccc2c(-c3ccc(C#N)cc3)ncn2c1 (centres undefined) | 2 | > 10000 | 140 | – | 37 | –
CC(C)(C(=O)Nc1nccs1)C(c1ccccc1)c1ccn2c(-c3ccccc3)ncc2c1 (single isomer, unassigned; enantiomer 1) | 11 | > 10000 | > 2500 | – | – | –
CC(C)(C(=O)Nc1nncs1)C(c1ccccc1)c1ccc2c(-c3ccc(F)c(Cl)c3)ncn2c1 (centres undefined) | 5 | > 10000 | 111 | – | 20 | –
CC(C)(C(=O)Nc1nncs1)C(c1ccccc1)c1ccc2c(-c3cccc(C#N)c3)ncn2c1 (centres undefined) | 4 | > 10000 | 1350 | – | 32 | –
CC(C)(C(=O)Nc1nccs1)C(c1ccccc1)c1ccc2c(ccn2-c2ccc(F)cc2)c1 (centres undefined) | – | – | 220 | – | 60 | –
CC(C)(C(=O)Nc1nccs1)C(c1ccccc1)c1ccn2c(-c3ccccc3)ncc2c1 (centres undefined) [listing 2 of 2 here] | – | – | – | – | 70 | –
CC(C)(C(=O)Nc1nccs1)C(c1ccccc1)c1ccc2cnccc2c1 (centres undefined) | 15 | – | > 10000 | – | – | –

Now from value to compound:

Ki (Glucocorticoid receptor [1]) [nM] | EC50 (Glucocorticoid receptor [2]) [nM] | EC50 (Glucocorticoid receptor [3]) [nM] | Efficacy (Glucocorticoid receptor [4]) [%] | Efficacy [5] [%] | Emax [6] [%] | SMILES
– | – | – | – | 73 | – | CC(C)(C(=O)Nc1nccs1)C(c1ccccc1)c1ccc2c(-c3ccc(F)cc3)ncn2c1 (single isomer, unassigned; enantiomer 2) [listing 1 of 2 here]
4 | > 10000 | > 5000 | – | – | – | CC(C)(C(=O)Nc1nccs1)C(c1ccccc1)c1ccc2c(-c3ccc(F)cc3)ncn2c1 (single isomer, unassigned; enantiomer 1)
3 | 262 | 36 | – | – | 66 | CC(C)(C(=O)Nc1nncs1)C(c1ccccc1)c1ccc2c(-c3ccc(F)cc3)ncn2c1 (centres undefined) [listing 1 of 2 here]
8 | > 10000 | 114 | – | 26 | – | CC(C)(C(=O)Nc1nccs1)C(c1ccccc1)c1ccc2c(-c3ccc(F)c(Cl)c3)ncn2c1 (centres undefined)
3 | 103 | 16 | – | – | 74 | CC(C)(C(=O)Nc1nccs1)C(c1ccccc1)c1ccc2c(-c3ccc(F)cc3)ncn2c1 (centres undefined) [listing 1 of 2 here]
– | – | – | – | 68 | – | CC(C)(C(=O)Nc1nncs1)C(c1ccccc1)c1ccc2c(-c3ccc(F)cc3)ncn2c1 (centres undefined) [listing 2 of 2 here]
– | – | – | – | 24 | – | CC(C)(C(=O)Nc1nncs1)C(c1ccccc1)c1ccc2c(-c3ccc(F)cc3)ncn2c1 (single isomer, unassigned; enantiomer 1) [listing 1 of 2 here]
1 | 60 | 6 | 69 | – | – | CC(C)(C(=O)Nc1nccs1)C(c1ccccc1)c1ccc2c(-c3ccc(F)cc3)ncn2c1 (single isomer, unassigned; enantiomer 2) [listing 2 of 2 here]
– | – | – | – | 72 | – | CC(C)(C(=O)Nc1nncs1)C(c1ccccc1)c1ccc2c(-c3ccc(F)cc3)ncn2c1 (single isomer, unassigned; enantiomer 2) [listing 1 of 2 here]
2 | 118 | 24 | 65 | – | – | CC(C)(C(=O)Nc1nncs1)C(c1ccccc1)c1ccc2c(-c3ccc(F)cc3)ncn2c1 (single isomer, unassigned; enantiomer 2) [listing 2 of 2 here]
6 | > 10000 | 1200 | – | – | – | CC(C)(C(=O)Nc1nncs1)C(c1ccccc1)c1ccc2c(-c3ccc(F)cc3)ncn2c1 (single isomer, unassigned; enantiomer 1) [listing 2 of 2 here]
4 | > 10000 | 89 | – | 37 | – | CC(C)(C(=O)Nc1nccs1)C(c1ccccc1)c1ccc2c(-c3ccc(C#N)cc3)ncn2c1 (centres undefined)
2 | 78 | 14 | – | 75 | 73 | CC(C)(C(=O)Nc1nccs1)C(c1ccccc1)c1ccc2c(-c3ccc(F)cc3F)ncn2c1 (centres undefined)
– | – | – | – | 66 | – | CC(C)(C(=O)Nc1nccs1)C(c1ccccc1)c1ccc2c(-c3ccc(F)cc3)ncn2c1 (centres undefined) [listing 2 of 2 here]
